Laboratory results: US10512700B2, “Radiohalide-labeled targeted diagnostics and therapeutics” (Memorial Sloan Kettering Cancer Center, priority 2014, dated 2019)
Where two headings read alike, the source gives them in different places.

How the values were obtained:
[1] = Plasma protein binding, Rapid Equilibrium Dialysis; type: in vitro ADME, mouse; parameters: fraction unbound at 4 h: dose or concentration left out as unconfirmed; settings: 4 h at 37° C.; for % plasma free fraction: 10 μM in mouse serum; for Plasma protein binding: 500 μM in mouse serum
Description: The plasma protein fraction was determined using the Rapid Equilibrium Dialysis Device System (LifeTechnologies, Grand Island, N.Y.) according to the manufacturer's protocol.
For each of the iodinated compounds, membrane dialysis was performed with 10 μM of the compound in mouse serum (500 μL) on one side of the membrane and PBS (750 μL) on the other side. The system was sealed with parafilm and incubated for 4 h at 37° C. on an orbital shaker set to 250 rpm. Thereafter, 400 μL of solution was taken from both sides, and samples were treated twice with an equal amount of AcN and vortexed to remove protein before HPLC analysis. After injection (100 μL), the compound peaks from each sample were then integrated, and the protein bound fraction was determined as % bound=[1−(Concentration buffer chamber/Concentration plasma chamber)]×100. The data was analyzed using Prism 6.0c (GraphPad Software, La Jolla, Calif.).
The system was sealed with parafilm and incubated for 4 h at 37° C. on an orbital shaker set to 100 rpm. Thereafter, 50 μL of solution was taken from both sides, and samples were treated with 300 μL of precipitation buffer (90/10 acetonitrile/water with 0.1% formic acid) and vortexed to remove protein before HPLC analysis. […] The data was analyzed using Prism 6.0c (GraphPad Software, La Jolla, Calif.).

[2] = Chromatographic Hydrophobicity Index (CHI) and log PCHI determination; type: physicochemical; settings: for chromatographic logP: reverse phase HPLC, read-out: logPCHI
Description: Chromatographic Hydrophobicity Index (CHI) was determined according to the procedures reported in K. Valko et al, “Chromatographic Hydrophobicity Index by Fast-Gradient RP-HPLC: A High-Throughput Alternative to log P/log D”, Anal. Chem. 1997, 69:2022-29, incorporated by reference herein in its entirety. Briefly, a series of standards with known CHIs were analyzed with reverse phase HPLC. Retention times of the standards along with their known CHIs were plotted with Prism 6.0c software (GraphPad, La Jolla, Calif.). A line was fit to the data to create a calibration curve, which was then used to calculate the CHI of the test chemical entity based on the HPLC retention time.
The log PCHI value was determined according to K. Valko, 1997.

U251 MG cells = experiment: In vitro blocking study, competitive inhibition of PARP1i-FL uptake; type: cell-based, human; settings: 5 μM (10-fold excess) with PARP1i-FL 500 nM, 30 minutes
Description: (§1) U251 MG or U373 MG (1×10^4 cells per well) cells were seeded into 12 wells each on a 96-well plate and cultured for 24 hours. […] Following incubation, cells were washed twice with media and twice with PBS and imaged with a Zeiss LSM 5Live confocal microscope (images not shown). Fluorescence intensity was then quantified from the images using ImageJ 1.47 u processing software (see FIG. 3).

U373 MG cells = experiment: as above; type: cell-based, human; settings: 5 μM (10-fold excess) with PARP1i-FL 500 nM, 30 minutes
Description: as §1

PARP1 = target: T1, PARP1 (Homo sapiens, UniProt P09874); experiment: IC50 determination, Universal PARP Colorimetric Assay Kit; type: biochemical; settings: Table 2, measured against PARP1
T1 construct: purchased Trevigen
Description: Inhibition of PARP1 was measured using the Universal PARP Colorimetric Assay Kit (Trevigen®, Gaithersburg, Md.). IC50 values were calculated using Prism 6.0c software (GraphPad, La Jolla, Calif.).
All experiments were carried out in triplicate.

[3] = reported for olaparib; cited from earlier work

T1 sequence (P09874 whole entry, species assumed): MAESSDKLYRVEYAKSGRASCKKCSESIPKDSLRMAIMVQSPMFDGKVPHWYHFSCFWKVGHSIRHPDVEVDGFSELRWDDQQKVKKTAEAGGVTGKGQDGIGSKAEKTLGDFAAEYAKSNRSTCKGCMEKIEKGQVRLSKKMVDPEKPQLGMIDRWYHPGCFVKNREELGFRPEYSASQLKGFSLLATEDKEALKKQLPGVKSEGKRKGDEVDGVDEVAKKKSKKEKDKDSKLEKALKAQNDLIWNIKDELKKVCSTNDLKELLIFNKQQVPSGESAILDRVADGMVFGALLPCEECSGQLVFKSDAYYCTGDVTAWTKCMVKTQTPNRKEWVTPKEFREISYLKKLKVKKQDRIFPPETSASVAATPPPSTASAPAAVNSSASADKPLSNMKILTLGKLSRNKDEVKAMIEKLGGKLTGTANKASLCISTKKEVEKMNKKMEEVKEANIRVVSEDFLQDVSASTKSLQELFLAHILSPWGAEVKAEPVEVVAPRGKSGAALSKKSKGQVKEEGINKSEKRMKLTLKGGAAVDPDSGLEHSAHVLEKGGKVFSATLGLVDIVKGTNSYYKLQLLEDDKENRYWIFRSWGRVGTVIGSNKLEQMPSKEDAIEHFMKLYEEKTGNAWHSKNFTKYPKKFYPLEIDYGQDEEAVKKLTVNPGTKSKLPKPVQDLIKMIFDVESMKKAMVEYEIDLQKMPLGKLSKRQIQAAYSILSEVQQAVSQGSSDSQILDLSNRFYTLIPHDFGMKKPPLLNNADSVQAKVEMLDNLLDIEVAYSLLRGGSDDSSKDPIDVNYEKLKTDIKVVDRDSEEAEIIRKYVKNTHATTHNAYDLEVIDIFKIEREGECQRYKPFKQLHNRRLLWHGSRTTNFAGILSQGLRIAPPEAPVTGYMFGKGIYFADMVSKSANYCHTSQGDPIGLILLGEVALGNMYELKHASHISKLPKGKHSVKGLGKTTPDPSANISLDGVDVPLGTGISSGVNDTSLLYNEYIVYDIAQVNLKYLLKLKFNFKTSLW

SMILES: O=C(c1cccc(I)c1)N1CCN(C(=O)c2cc(Cc3n[nH]c(=O)c4ccccc34)ccc2F)CC1 [c-1 (^127I), 4-(4-fluoro-3-(4-(3-iodobenzoyl)piperazine-1-carbonyl)benzyl)-phthalazin-1(2H)-one]
- % plasma free fraction [1]: 9.6 ± 1.5%

SMILES: O=C(c1ccc(F)cc1)N1CCN(C(=O)c2cc(Cc3n[nH]c(=O)c4ccccc34)ccc2F)CC1 [c-2 (^19F)]
- CHI ([2]; Table 3): 57.5
- logPCHI ([2]; Table 3): 2.15±0.41
- chromatographic logP ([2]; Table 3): 2.15 ± 0.41
- reduction of fluorescence intensity in the nucleus (U251 MG cells): 80.0%±10.8%
- reduction of fluorescence intensity in the nucleus (U373 MG cells): 78.8%±10.4%
- Plasma protein binding [1]: 63.9 ± 12.6%
- fraction unbound at 4 h ([1]; mouse, mouse serum): 0.36

SMILES: O=C(c1ccc(I)cc1)N1CCN(C(=O)c2cc(Cc3n[nH]c(=O)c4ccccc34)ccc2F)CC1 [c-2 (^127I), 4-(4-fluoro-3-(4-(4-iodobenzoyl)piperazine-1-carbonyl)benzyl)-phthalazin-1(2H)-one]
- % plasma free fraction [1]: 11.5 ± 0.1%

SMILES: O=C(Cc1cccc(I)c1)N1CCN(C(=O)c2cc(Cc3n[nH]c(=O)c4ccccc34)ccc2F)CC1 [c-3 (^127I), 4-(4-fluoro-3-(4-(2-(3-iodophenyl)acetyl)piperazine-1-carbonyl)-benzyl)phthalazin-1(2H)-one]
- IC50 (PARP1): 34 ± 3 nM
- CHI ([2]; Table 2): 66.7
- chromatographic logP ([2]; Table 2): 2.7
- % plasma free fraction [1]: 7.0 ± 0.1%

SMILES: O=C(Cc1ccc(I)cc1)N1CCN(C(=O)c2cc(Cc3n[nH]c(=O)c4ccccc34)ccc2F)CC1 [c-4 (^127I), 4-(4-fluoro-3-(4-(2-(4-iodophenyl)acetyl)piperazine-1-carbonyl)-benzyl)phthalazin-1(2H)-one]
- IC50 (PARP1): 74 ± 5 nM
- CHI ([2]; Table 2): 66.7
- chromatographic logP ([2]; Table 2): 2.7
- % plasma free fraction [1]: 5.0 ± 0.3%

SMILES: O=C(CCc1cccc(I)c1)N1CCN(C(=O)c2cc(Cc3n[nH]c(=O)c4ccccc34)ccc2F)CC1 [c-5 (^127I), 4-(4-fluoro-3-(4-(3-(3-iodophenyl)propanoyl)piperazine-1-carbonyl)benzyl)phthalazin-1(2H)-one]
- IC50 (PARP1): 107 ± 4 nM
- CHI ([2]; Table 2): 71.6
- chromatographic logP ([2]; Table 2): 3
- % plasma free fraction [1]: 7.8 ± 1.4%

SMILES: O=C(CCc1ccc(I)cc1)N1CCN(C(=O)c2cc(Cc3n[nH]c(=O)c4ccccc34)ccc2F)CC1 [c-6 (^127I), 4-(4-fluoro-3-(4-(3-(4-iodophenyl)propanoyl)piperazine-1-carbonyl)benzyl) phthalazin-1(2H)-one]
- IC50 (PARP1): 47 ± 5 nM
- CHI ([2]; Table 2): 71.6
- chromatographic logP ([2]; Table 2): 3
- % plasma free fraction [1]: 4.7 ± 0.5%

SMILES: O=C(c1cc(Cc2n[nH]c(=O)c3ccccc23)ccc1F)N1CCN(C(=O)C2CC2)CC1 [olaparib, 4-[3-(4-cyclopropanecarbonylpiperazine-1-carbonyl)-4-fluorobenzyl]-2H-phthalazin-1-one, reference compound]
- CHI [3]: 34.1
- logPCHI [3]: 0.8
- reduction of fluorescence intensity in the nucleus (U251 MG cells): 69.6%±22.3%
- reduction of fluorescence intensity in the nucleus (U373 MG cells): 71.2%±20.0%
- Plasma protein binding [1]: 65%
